Results reported in ChEMBL document CHEMBL4725284, “Junceellolide B, a novel inhibitor of Hepatitis B virus” (Bioorg Med Chem, 2020).
pEC50: −log10 of the molar value. Activity calls are given as the source filed them. No cut-off for these calls is given here.

Tests used:
Hepatitis B virus [1] = test: Antiviral activity against HBV infected in human HepAD38 cells assessed as inhibition of viral DNA at 10 uM incubated for 4 days by SYBR green dye based RT-PCR analysis relative to control; format: functional; details: HePAD38, 96 h, time 4 day
Hepatitis B virus [2] = test: Antiviral activity against HBV infected in human HepAD38 cells assessed as inhibition of viral DNA incubated for 4 days by SYBR green dye based RT-PCR analysis; format: functional, organism-based; details: HePAD38, 96 h
Hepatitis B virus [3] = test: Antiviral activity against HBV infected in doxycycline-induced human HepG2-NTCP cells assessed as reduction in HBeAg secretion in supernatant measured from day 2 to 8 post treatment by time resolved fluoroimmunoassay; format: functional, organism-based; details: dose microM 2.5-10, time day 2-8
Hepatitis B virus [4] = test: Antiviral activity against HBV infected in doxycycline-induced human HepG2-NTCP cells assessed as reduction in HBsAg secretion in supernatant measured from day 2 to 8 post treatment by time resolved fluoroimmunoassay; format: functional, organism-based; details: dose microM 2.5-10, time day 2-8
Hepatitis B virus [5] = test: Antiviral activity against HBV infected human HepAD38 cells assessed as reduction in HBV DNA levels preincubated with compound for 4 days measured after 4 days by RT-PCR analysis; format: functional, organism-based
Hepatitis B virus [6] = test: Antiviral activity against HBV infected human HepAD38 cells assessed as reduction in HBeAg secretion preincubated with compound for 4 days measured after 4 days by […] analysis; format: functional, organism-based
Hepatitis B virus [7] = test: Antiviral activity against HBV infected human HepAD38 cells assessed as reduction in HBV RNA levels preincubated with compound for 4 days measured after 4 days by RT-PCR analysis; format: functional, organism-based
[8] = Cytotoxicity against human HePAD38 cells assessed as cell viability incubated for 72 hrs by MTT assay; format: cell-based
Hepatitis B virus [9] = test: Antiviral activity against HBV infected human HepAD38 cells assessed as reduction in HBV cccDNA levels pretreated with tet for 2 days measured after 8 days post treatment with compound by rolling-cycle amplification; format: functional, organism-based; details: time 10.0 day
Hepatitis B virus [10] = test: Antiviral activity against HBV infected human HepAD38 cells assessed as decrease in HBV cccDNA levels pretreated with tet for 2 days measured after 8 days post treatment with compound by southern blot analysis; format: functional, organism-based; details: time 10.0 day
Hepatitis B virus [11] = test: Antiviral activity against HBV infected human HepAD38 cells assessed as decrease in DP-rcDNA levels pretreated with tet for 2 days measured after 8 days post treatment with compound by southern blot analysis; format: functional, organism-based; details: time 10.0 day
Hepatitis B virus [12] = test: Antiviral activity against HBV infected human HepAD38 cells assessed as HBV cccDNA degradation in presence of tet and LAM at 10 uM obtained up to 8 days post treatment by rolling cycle amplification; format: functional, organism-based; details: time day <=8
Hepatitis B virus [13] = test: Antiviral activity against HBV infected human HepAD38 cells assessed as inhibition of total HBV RNA at 10 uM in absence of tet followed by treating with compound after 24 hrs measured after 4 days by RT-qPCR analysis; format: functional, organism-based; details: time 4.0 day
Hepatitis B virus [14] = test: Antiviral activity against HBV infected human HepAD38 cells assessed as inhibition of precRNA at 10 uM in absence of tet followed by treating with compound after 24 hrs measured after 4 days by RT-qPCR analysis; format: functional, organism-based; details: time 4.0 day
Hepatitis B virus [15] = test: Antiviral activity against HBV infected human HepAD38 cells assessed as inhibition of pgRNA at 10 uM in absence of tet followed by treating with compound after 24 hrs measured after 4 days by RT-qPCR analysis; format: functional, organism-based; details: time 4.0 day
Hepatitis B virus [16] = test: Antiviral activity against HBV infected human HepAD38 cells assessed as inhibition of 3.5 kb RNA at 10 uM in absence of tet followed by treating with compound after 24 hrs measured after 4 days by northern blot analysis; format: functional, organism-based; details: time 4.0 day
Hepatitis B virus [17] = test: Antiviral activity against HBV infected human HepAD38 cells assessed as decrease in HBV core proteins measured after 4 days by western blot analysis; format: functional, organism-based; details: dose microM 1.25-10, time 4.0 day
Hepatitis B virus [18] = test: Antiviral activity against HBV infected human HepAD38 cells assessed as decrease in reverse-transcripted ssDNA treated with tet and LAM followed by addition of compound by southern blot analysis; format: functional, organism-based; details: dose microM 1.25-10, time 4.0 day
Hepatitis B virus [19] = test: Antiviral activity against HBV infected human HepAD38 cells assessed as decrease in reverse-transcripted rcDNA treated with tet and LAM followed by addition of compound by southern blot analysis; format: functional, organism-based; details: dose microM 1.25-10, time 4.0 day
Hepatitis B virus [20] = test: Antiviral activity against HBV infected human HepAD38 cells assessed as degradation of HBV RNA; format: functional, organism-based
Hepatitis B virus [21] = test: Antiviral activity against HBV infected in human HuH7 cells transfected with luciferase reporter plasmid assessed as repression of HBV basal core promoter at 0.25 to 10 uM incubated for 48 hrs by luciferase assay; format: functional, organism-based; details: Huh-7, dose microM 0.25-10, time 48.0 hrs
Hepatitis B virus [22] = test: Antiviral activity against HBV infected in human HuH7 cells transfected with luciferase reporter plasmid assessed as repression of HBV enhancer I at 0.25 to 10 uM incubated for 48 hrs by luciferase assay; format: functional, organism-based; details: Huh-7, dose microM 0.25-10, time 48.0 hrs
Hepatitis B virus [23] = test: Antiviral activity against HBV infected in human HuH7 cells assessed as reduction in the expression of viral mRNA at 10 uM incubated for 4 days by FPKM analysis; format: functional, organism-based; details: Huh-7, time 4.0 day
[24] = Downregulation of ZBED6 in HBV infected human HepAD38 cells assessed as inhibition rate at 10 uM in absence of tet incubated with compound for 4 days followed by RNA extraction with trizol reagent measured by qRT-PCR analysis relative to control; format: functional; details: Hepatitis B virus, HePAD38, 96 h, time 4 day
[25] = Downregulation of ZBTB7B in HBV infected human HepAD38 cells assessed as inhibitory rate at 10 uM in absence of tet incubated with compound for 4 days followed by RNA extraction with trizol reagent and measured by qRT-PCR analysis relative to control; format: functional; details: Hepatitis B virus, HePAD38, 96 h, time 4 day
[26] = Cytotoxicity against human HepG2 cells assessed as cell viability incubated for 72 hrs by MTT assay; format: cell-based

C=C1CC[C@H](OC(C)=O)[C@]2(C)[C@@H](OC(C)=O)/C=C/C(=C)[C@H](Cl)[C@@H]3OC(=O)[C@H](C)[C@@]3(O)[C@@H](OC(C)=O)[C@@H]12
inhibition at 10 µM (Hepatitis B virus [1]): 64% | pEC50 (Hepatitis B virus [2]): 6.08 | Activity (Hepatitis B virus [3]): Dose-dependent effect | Activity (Hepatitis B virus [4]): Dose-dependent effect | pEC50 (Hepatitis B virus [5]): 6.08 | pEC50 (Hepatitis B virus [6]): 5.11 | pEC50 (Hepatitis B virus [7]): 5.54 | CC50 at 72 h [8]: > 100 µM | Activity (Hepatitis B virus [9]): Active | Activity (Hepatitis B virus [10]): Active | Activity (Hepatitis B virus [11]): Active | Activity (Hepatitis B virus [12]): inactive | inhibition (Hepatitis B virus [13]): Active | inhibition (Hepatitis B virus [14]): Active | inhibition (Hepatitis B virus [15]): Active | inhibition (Hepatitis B virus [16]): Active | Activity (Hepatitis B virus [17]): Dose-dependent effect | Activity (Hepatitis B virus [18]): Dose-dependent effect | Activity (Hepatitis B virus [19]): Dose-dependent effect | Activity (Hepatitis B virus [20]): inactive | Activity (Hepatitis B virus [21]): Active | Activity (Hepatitis B virus [22]): Active | Activity (Hepatitis B virus [23]): Active | inhibition at 10 µM [24]: 28% | inhibition at 10 µM [25]: 32% | CC50 at 72 h [26]: > 100 µM

C=C1/C=C/[C@H](OC(=O)CC)[C@@]2(C)[C@@H](OC(C)=O)CC[C@]3(CO3)[C@@H]2[C@H](OC(C)=O)[C@]2(O)[C@@H](C)C(=O)O[C@H]2[C@H]1Cl
inhibition at 10 µM (Hepatitis B virus [1]): 75% | pEC50 (Hepatitis B virus [2]): 6.09 | CC50 at 72 h [8]: > 100 µM | CC50 at 72 h [26]: > 100 µM

C=C1/C=C/[C@H](OC(C)=O)[C@@]2(C)[C@@H](OC(C)=O)CC[C@]3(CO3)[C@@H]2[C@H](OC(C)=O)[C@]2(O)[C@@H](C)C(=O)O[C@H]2[C@H]1Cl [JUNCEELLOLIDE C]
inhibition at 10 µM (Hepatitis B virus [1]): 63% | pEC50 (Hepatitis B virus [2]): 5.28 | CC50 at 72 h [8]: > 100 µM | CC50 at 72 h [26]: > 100 µM

CC(=O)O[C@H]1CC[C@]2(CO2)[C@@H]2[C@H](OC(C)=O)[C@@]3(O)[C@H](/C=C(CCl)\C=C/[C@H](OC(=O)COC(=O)CC(C)C)[C@@]12C)OC(=O)[C@@H]3C
inhibition at 10 µM (Hepatitis B virus [1]): 0% | CC50 at 72 h [8]: > 100 µM | CC50 at 72 h [26]: > 100 µM

C=C1C[C@H](OC(C)=O)[C@H](OC(C)=O)[C@@]2(C)[C@H]1[C@H](OC(C)=O)[C@@]13O[C@@H](C(=C)[C@H](Cl)[C@@H]1OC(=O)[C@@H]3C)[C@@H](O)[C@@H]2OC(C)=O
inhibition at 10 µM (Hepatitis B virus [1]): 0% | CC50 at 72 h [8]: > 100 µM | CC50 at 72 h [26]: > 100 µM

C=C1CC[C@H](OC(C)=O)[C@]2(C)[C@@H](OC(C)=O)C[C@@H](OC(C)=O)/C(COC(C)=O)=C\[C@@H]3OC(=O)[C@H](C)[C@@]3(O)[C@@H](OC(C)=O)[C@@H]12
inhibition at 10 µM (Hepatitis B virus [1]): 0% | CC50 at 72 h [8]: > 100 µM | CC50 at 72 h [26]: > 100 µM

C=C1CC[C@H](OC(C)=O)[C@]2(C)[C@@H](OC(C)=O)C[C@@H](O)/C(C)=C\[C@@H]3OC(=O)[C@H](C)[C@@]3(O)[C@@H](OC(C)=O)[C@@H]12
inhibition at 10 µM (Hepatitis B virus [1]): 12% | CC50 at 72 h [8]: > 100 µM | CC50 at 72 h [26]: > 100 µM
